Consider four molecules from US6706509B2, “Oncoprotein protein kinase” (The Regents of the University of California, priority 1993, dated 2004).

The subject of one test is ERK1 and ERK2. Put plainly: ERK1 and ERK2 immunecomplex kinase assay with MBP substrate, Jurkat cells and mouse thymocytes. The test is classed as cell-based, human; mouse. On the procedure:
Exponentially growing cells were stimulated for the indicated times and hypotonic detergent cellular extracts were prepared as described (Hibi, et al., Genes and Dev., supra, 1993). The solid-state phosphorylation assay for measuring JNK activity was performed by incubated extracts with GSTcJun(1-223)-GSH agarose beads as described (Hibi, et al., supra., 1993) and as in Example 2. ERK1 and 2 activity was assayed by an immunecomplex kinase assay using MBP as a substrate (Minden, et al., Nature, 1993).
(§1) JNK is a proline-directed protein kinase activated by extracellular stimuli (Hibi, et al., supra, 1993). In that respect, it resembles the ERK1 and 2 MAP kinases (Boulton, et al., Cell, 65:663-675, 1991). Since ERK1 and 2 appear to be involved in induction of c-fos (Gille, et al., Nature, 358:414-417, 1992; Marais, et al., Cell, 73:381-393, 1993) and could thereby participate in T cell activation, their regulation was examined. ERK1 and ERK2 activities were measured in both Jurkat and mouse thymocytes using an immunecomplex kinase assay and myelin basic protein (MBP) as a substrate. Recombinant, kinase-defective ERK1 was also used a substrate for assaying MEK, the protein kinase responsible for activation of ERK1 and 2 (Crews, et al., Science, 258:478-480, 1992).
(§2) WCE (5 μg) of Jurkat (FIG. 15, panel A) or mouse thymocytes (panel C) were incubated with 1 μg of kinase-defective ERK1 in kinase buffer containing γ-^32P-ATP for 20 minutes. The phosphorylated proteins were separated by SDS-PAGE and the band corresponding to the mutant ERK1 is indicated. WCE (20 μg) of Jurkat (panel B) or mouse thymocytes (panel C) that were treated as described above were immunoprecipitated with anti-ERK antibodies (a gift from Dr. M. Weber). The immune complexes were washed and incubated in kinase buffer containing γ-^32P-ATP and 2 μg MBP for 15 minutes at 30° C. The phosphorylated proteins were separated by SDS-PAGE. The band corresponding to phosphorylated MBP is indicated.

The test system of another test is MEK. The test is described as follows: MEK assay with kinase-defective ERK1 substrate, Jurkat cells and mouse thymocytes. The test is classed as cell-based, human; mouse. As for the experimental part:
as §1, §2

The subject of test [1] is JNK. The test is described as follows: Solid-state phosphorylation assay of JNK in FR3T3, CV-1 and PC12 cells. It counts as cell-based. The following applies: for JNK activity, effect of A23187 or CsA treatment: FR3T3, CV-1 and PC12 cells, A23187 1 μg/ml, CsA 100 ng/ml. On the procedure: We examined whether elevated intracellular Ca^++ affects JNK activation in other cells. […] Cultures of FR3T3, CV-1, PC12 and mouse thymocytes were incubated for 15 minutes in the presence of TPA (50 ng/ml, T), A23817 (1 μg/ml, A) and/or CsA (100 ng/ml), as indicated. WCE prepared from 2-4×10^5 cells for the established cell lines and 1.5×10^6 cells for primary thymocytes were incubated with GSTcJun(1-223)-GSH agarose beads. After washing, JNK activity was determined by solid-state phosphorylation assay as described above.

For test [2], the system named is JNK. Put plainly: Solid-state phosphorylation assay of JNK in mouse thymocytes. It counts as cell-based. As for the experimental part: Jurkat cells were grown in RPMI with 10% fetal calf serum (FCS), 1 mM […], 100 μ/ml penicillin (pen), 100 μg/ml streptomycin (strep) and 250 ng/ml amphotericin (complete medium). HeLa S3, CV-1 and FR3T3 cells were grown in DMEM supplemented with 10% FCS, 100 μ/ml pen, 100 μg/ml strep. All cells were cultured at 37° C. with 5% CO2. Mouse thymocytes were prepared from 8 week old Balb/C mice by gradient centrifugation on lymphocyte separation medium (Pharmacia). The lymphocytes were cultured for 5 hours at 37° C. in RPMI+10% FCS, prior to stimulation. Jurkat cells were labelled for 90 minutes with 0.5 mCi/ml ^32P-orthophosphate (ICN Radiochemicals) in medium lacking sodium phosphate. Labelled cells were treated with TPA (Sigma) and A23187 (Calbiochem) 1 μg/ml as indicated. When used, cyclosporin A (CsA) (Sandoz) 100 ng/ml in ethanol was added 10 minutes prior to cell stimulation. Following stimulation, the labelled cells were washed twice with ice-cold PBS then lysed with RIPA buffer (10 mM Tris pH 7.5, 150 mM NaCl, 2 mM EDTA, 1% Triton-X 100, 1% DOC, 0.1% SDS) supplemented with phosphatase inhibitors (20 mM β-glycerophosphate, 10 mM p-nitro-phenylphosphate, 1 mM Na3 VO4), and protease inhibitors (10 μg/ml leupeptin, aprotonin, pepstatin and 1 mM phenylmethyl sulfonylfluoride). c-Jun was immunoprecipitated as described (Binetruy, et al., supra., 1992) and analyzed by SDS-PAGE, followed by peptide mapping (Boyle, et al., Cell, 64:573-584, 1991; Lin, et al. Cell, 70:777-789, 1992). Ha-Ras was immunoprecipitated with Y13-259. Ha-Ras bound nucleotides were extracted and analyzed as described by Satoh, et al., (Proc. Natl. Acad. Sci., USA, 15:5993-5997, 1990).
We examined whether elevated intracellular Ca^++ affects JNK activation in other cells. […] Cultures of FR3T3, CV-1, PC12 and mouse thymocytes were incubated for 15 minutes in the presence of TPA (50 ng/ml, T), A23817 (1 μg/ml, A) and/or CsA (100 ng/ml), as indicated. […] After washing, JNK activity was determined by solid-state phosphorylation assay as described above.

Test [3] relates to AP-1 responsive human collagenase promoter (-73Col-LUC). Put plainly: AP-1 transcriptional activity, -73Col-LUC luciferase reporter in Jurkat cells. It counts as cell-based. The conditions noted are these: for -73Col-LUC luciferase activity, agent administered alone: TPA 50 ng/ml or A23187 1 μg/ml, 9 hours; for -73Col-LUC luciferase activity, two costimuli together: TPA+A23187 or anti-CD3+anti-CD28. On the procedure:
T Ag Jurkat cells, a derivative of the human Jurkat T-cell line stably transfected with the SV40 large T antigen (a gift from Dr. G. Crabtree) were grown to 10^6/ml, then resuspended at 2×10^7/ml in fresh complete medium. 10^7 cells (0.5 ml) were mixed with reporter plasmids (5 μg, −79 jun-LUC; 10 μg, −73/+63 Col-LUC or −60/+63 Col-LUC; 5 μg IL2-LUC) at room temperature for 10 minutes, then electroporated at 250 V, 960 uF in a 0.4 cm cuvette using a Bio-Rad GenePulser. After electroporation, cells were immediately put on ice for 10 minutes, then resuspended in 10 ml complete medium for 24 hours before stimulation. 0.5 μg of pSRaIIc-Jun were used to transfect 10^7 Jurkat cells. Luciferase activity was determined as described (Deng and Karin, supra., 1993).
The effects of the different stimuli on AP-1 transcriptional activity in Jurkat cells were examined using a truncated, AP-1 responsive, human collagenase promoter (Angel, et al., Cell, 49:729-739, 1987) fused to the luciferase (LUC) reporter gene. Jurkat cells were transfected with 10 μg of either −73Col-LUC or −60Col-LUC reporter plasmids. 24 hours after transfection, the cells were aliquoted into 24 well plates and incubated for 9 hours with 50 ng/ml TPA, 1 μg/ml A23187 or 100 ng/ml CsA, either alone or in combinations, as indicated. The cells were harvested and luciferase activity was determined. The results shown are averages of three experiments done in triplicates.

Where [4] appears, read: Jurkat cells or mouse thymocytes.

Consider `CNc1ccc2oc(C[C@H]3O[C@@]4(CC[C@H]3C)O[C@H]([C@H](C)C(=O)c3ccc[nH]3)[C@H](C)C[C@H]4C)nc2c1C(=O)O` [A23187], for which the “ERK activity, effect of A23187 or CsA” value in the test with ERK1 and ERK2 is “had no effect on either activity”. For the same molecule, the “MEK activity, effect of A23187 or CsA” value in the test with MEK was “had no effect on either activity”. In the test with JNK [1], the “JNK activity, effect of A23187 or CsA treatment” value is “In none of these cells was JNK activity affected”. Further, the “JNK activity, costimulation with TPA” value with JNK [2] (A23187 1 μg/ml plus TPA) is “enhanced”. Also, in test [3], the “-73Col-LUC luciferase activity, agent administered alone” value is “marginal effects” and the “-73Col-LUC luciferase activity, two costimuli together” value is recorded as “synergistic activation”.
Consider `CCCCCCCCCCCCCC(=O)O[C@@H]1[C@@H](C)[C@@]2(O)[C@@H](C=C(CO)C[C@]3(O)C(=O)C(C)=C[C@@H]23)[C@H]2C(C)(C)[C@]12OC(C)=O` [TPA], for which the “ERK activity, TPA treatment” value in the test with ERK1 and ERK2 (setting [4]) is on record as “fully stimulated”. Besides, the “MEK activity, TPA treatment” value in the test with MEK (setting [4]) was “fully stimulated”. Further, in the test on JNK [1] (CV1 and FR3T3 cells, TPA 50 ng/ml, 15 minutes), the “JNK activity, TPA alone” value is “weakly stimulated”. Further, the “JNK activity, TPA alone” value with JNK [2] (TPA 50 ng/ml, 15 minutes) is reported as “moderate increase in JNK activity”. In addition, in test [3], the “-73Col-LUC luciferase activity, agent administered alone” value is recorded as “marginal effects” and the “-73Col-LUC luciferase activity, two costimuli together” value is recorded as “synergistic activation”.
As to “anti-CD3: anti-CD3 monoclonal antibody OKT3”, the “-73Col-LUC luciferase activity, two costimuli together” value in test [3] is on record as “synergistic activation”.
On to cyclosporin A [CsA], for which the “ERK activity, effect of A23187 or CsA” value in the test with ERK1 and ERK2 is reported as “had no effect on either activity”. For the same molecule, in the test on MEK, the “MEK activity, effect of A23187 or CsA” value is on record as “had no effect on either activity”. Also, the “JNK activity, effect of A23187 or CsA treatment” value with JNK [1] is reported as “In none of these cells was JNK activity affected”. Also, the “JNK activity, CsA added to TPA+A23187” value with JNK [2] (CsA 100 ng/ml) is recorded as “inhibited”. In addition, in test [3] (CsA 100 ng/ml with TPA+A23187, 9 hours), the “effect on induction of -73Col-LUC” value is “inhibited”.
